Measured values published in patent publication US20020035061A1, “COMPOSITIONS AND METHODS FOR TREATING INFECTIONS USING CATIONIC PEPTIDES ALONE OR IN COMBINATION WITH ANTIBIOTICS” (priority 1996, published 2002).

How the values were obtained:
[1] = tested on: microorganisms with acquired resistance; test: microbe, parasite or virus in culture; assay type: cell-based; settings: for Peptide MIC: in µg/mL
[2] = tested on: vancomycin / teicoplanin resistant enterococci; test: microbe, parasite or virus in culture; assay type: cell-based; settings: for Vancomycin MIC + Peptide: in combination with the labelled peptide; for Peptide MIC + Vancomycin: in combination with vancomycin

KWKSFIKKLTSAAKKVVTTAKPLISS [MBI 26]
Peptide MIC Alone ([1]; P. aeruginosa PA77, Ciprofloxacin section): 128 µg/mL
Peptide MIC ([1]; S. aureus, combination with Ampicillin): 0.25
Peptide MIC ([1]; S. aureus, combination with Mupirocin): 4
Peptide MIC + Tobramycin ([1]; S. epidermidis SE068): 0.5 µg/mL
Tobramycin MIC + Peptide ([1]; S. epidermidis SE068): 4 µg/mL
Peptide MIC Alone ([1]; S. epidermidis SE068, Tobramycin section): 2 µg/mL
Peptide MIC + Tobramycin ([1]; S. epidermidis SE071): 8 µg/mL
Tobramycin MIC + Peptide ([1]; S. epidermidis SE071): 0.125 µg/mL
Peptide MIC Alone ([1]; S. epidermidis SE071, Tobramycin section): 16 µg/mL
Peptide MIC ([1]; S. epidermidis, combination with Clindamycin): 2
Peptide MIC ([1]; S. haemolyticus, combination with Clindamycin): 1
Peptide MIC ([1]; S. haemolyticus, combination with Methicillin): 2
Peptide MIC + Piperacillin ([1]; S. maltophilia 2): 2 µg/mL
Piperacillin MIC + Peptide ([1]; S. maltophilia 2): 16 µg/mL
Peptide MIC Alone ([1]; S. maltophilia 2, Piperacillin section): 4 µg/mL
Peptide MIC + Piperacillin ([1]; S. maltophilia 4): 8 µg/mL
Piperacillin MIC + Peptide ([1]; S. maltophilia 4): 16 µg/mL
Peptide MIC Alone ([1]; S. maltophilia 4, Piperacillin section): 16 µg/mL
Ciprofloxacin MIC + Peptide ([1]; S. maltophilia 34): 0.25 µg/mL
Peptide MIC + Ciprofloxacin ([1]; S. maltophilia 34): 8 µg/mL
Peptide MIC Alone ([1]; S. maltophilia 34, Ciprofloxacin section): >32 µg/mL
Ciprofloxacin MIC + Peptide ([1]; S. maltophilia 35): 0.5 µg/mL
Peptide MIC + Ciprofloxacin ([1]; S. maltophilia 35): 16 µg/mL
Peptide MIC + Piperacillin ([1]; S. maltophilia 35): 16 µg/mL
Piperacillin MIC + Peptide ([1]; S. maltophilia 35): 4 µg/mL
Peptide MIC Alone ([1]; S. maltophilia 35, Ciprofloxacin section): >32 µg/mL
Peptide MIC Alone ([1]; S. maltophilia 35, Piperacillin section): >32 µg/mL
Peptide MIC + Piperacillin ([1]; S. maltophilia 41): 32 µg/mL
Piperacillin MIC + Peptide ([1]; S. maltophilia 41): 16 µg/mL
Peptide MIC Alone ([1]; S. maltophilia 41, Piperacillin section): >32 µg/mL
Gentamicin MIC + Peptide ([1]; S. maltophilia SMA017): 1 µg/mL
Peptide MIC + Gentamicin ([1]; S. maltophilia SMA017): 8 µg/mL
Peptide MIC Alone ([1]; S. maltophilia SMA017, Gentamicin section): 16 µg/mL
Gentamicin MIC + Peptide ([1]; S. maltophilia SMA019): 2 µg/mL
Peptide MIC + Gentamicin ([1]; S. maltophilia SMA019): 2 µg/mL
Peptide MIC Alone ([1]; S. maltophilia SMA019, Gentamicin section): 4 µg/mL
Peptide MIC + Tobramycin ([1]; S. maltophilia SMA027): 64 µg/mL
Tobramycin MIC + Peptide ([1]; S. maltophilia SMA027): 4 µg/mL
Peptide MIC Alone ([1]; S. maltophilia SMA027, Tobramycin section): >128 µg/mL
Peptide MIC ([1]; S. maltophilia, combination with Piperacillin): 32
Peptide MIC + Piperacillin ([1]; S. marcescens 1): 16 µg/mL
Piperacillin MIC + Peptide ([1]; S. marcescens 1): 2 µg/mL
Peptide MIC Alone ([1]; S. marcescens 1, Piperacillin section): >128 µg/mL
FIC ([1]; peptide + Ceftriaxone, A. baumannii ABI005): 0.53
FIC ([1]; peptide + Ceftriaxone, A. baumannii ABI006): 0.56
FIC ([1]; peptide + Ceftriaxone, B. cepacia BC003): 0.50
FIC ([1]; peptide + Ceftriaxone, E. cloacae ECL015): 0.19
FIC ([1]; peptide + Ciprofloxacin, A. calcoaceticus 5): 0.38
FIC ([1]; peptide + Ciprofloxacin, E. cloacae 16): 0.38
FIC ([1]; peptide + Ciprofloxacin, E. cloacae 17): 0.38
FIC ([1]; peptide + Ciprofloxacin, P. aeruginosa 30): 0.09
FIC ([1]; peptide + Ciprofloxacin, P. aeruginosa 31): 0.27
FIC ([1]; peptide + Ciprofloxacin, P. aeruginosa PA41): 0.50
FIC ([1]; peptide + Ciprofloxacin, P. aeruginosa PA77): 0.56
FIC ([1]; peptide + Ciprofloxacin, S. maltophilia 34): 0.25
FIC ([1]; peptide + Ciprofloxacin, S. maltophilia 35): 0.50
FIC ([1]; peptide + Gentamicin, A. baumannii ABI001): 0.56
FIC ([1]; peptide + Gentamicin, A. baumannii ABI002): 0.53
FIC ([1]; peptide + Gentamicin, P. aeruginosa PA023): 0.75
FIC ([1]; peptide + Gentamicin, P. aeruginosa PA041): 0.75
FIC ([1]; peptide + Gentamicin, S. maltophilia SMA017): 0.52
FIC ([1]; peptide + Gentamicin, S. maltophilia SMA019): 0.53
FIC ([1]; peptide + Piperacillin, A. calcoaceticus 2): 0.50
FIC ([1]; peptide + Piperacillin, A. calcoaceticus 7): 0.25
FIC ([1]; peptide + Piperacillin, E. cloacae 13): 0.16
FIC ([1]; peptide + Piperacillin, E. cloacae 19): 0.31
FIC ([1]; peptide + Piperacillin, H. influenzae 1): 0.19
FIC ([1]; peptide + Piperacillin, H. influenzae 2): 0.19
FIC ([1]; peptide + Piperacillin, P. aeruginosa 7): 0.25
FIC ([1]; peptide + Piperacillin, P. aeruginosa 23): 0.27
FIC ([1]; peptide + Piperacillin, P. aeruginosa 26): 0.56
FIC ([1]; peptide + Piperacillin, S. maltophilia 2): 0.75
FIC ([1]; peptide + Piperacillin, S. maltophilia 4): 0.63
FIC ([1]; peptide + Piperacillin, S. maltophilia 35): 0.26
FIC ([1]; peptide + Piperacillin, S. maltophilia 41): 0.52
FIC ([1]; peptide + Piperacillin, S. marcescens 1): 0.09
FIC ([1]; peptide + Tobramycin, P. aeruginosa PA031): 0.75
FIC ([1]; peptide + Tobramycin, S. epidermidis SE068): 0.27
FIC ([1]; peptide + Tobramycin, S. epidermidis SE071): 0.50
FIC ([1]; peptide + Tobramycin, S. maltophilia SMA027): 0.50
Peptide MIC Alone ([2]; E. faecalis EFS005): >128 µg/mL
Peptide MIC Alone ([2]; E. faecalis EFS010): 4 µg/mL
Peptide MIC Alone ([2]; E. faecalis EFS011): >128 µg/mL
MBI 26 Alone (MIC) ([2]; E. faecalis VanA strains): 64 µg/mL
MBI 26 + Teicoplanin (MIC) ([2]; E. faecalis VanA strains, in combination with teicoplanin): 8 µg/mL
Amikacin MIC + Peptide ([2]; E. faecium EFM004): 8 µg/mL
Peptide MIC + Amikacin ([2]; E. faecium EFM004): 32 µg/mL
Peptide MIC Alone ([2]; E. faecium EFM004): 64 µg/mL
Peptide MIC Alone ([2]; E. faecium EFM004, Amikacin section): 64 µg/mL
Peptide MIC Alone ([2]; E. faecium EFM010): 32 µg/mL
Peptide MIC Alone ([2]; E. faecium EFM011): 32 µg/mL
Amikacin MIC + Peptide ([2]; E. faecium EFM020): 8 µg/mL
Peptide MIC + Amikacin ([2]; E. faecium EFM020): 32 µg/mL
Peptide MIC Alone ([2]; E. faecium EFM020, Amikacin section): 64 µg/mL
FIC ([2]; Vancomycin + peptide, E. faecalis EFS005): 0.31
FIC ([2]; Vancomycin + peptide, E. faecalis EFS010): 0.27
FIC ([2]; Vancomycin + peptide, E. faecalis EFS011): 0.25
FIC ([2]; Vancomycin + peptide, E. faecium EFM004): 0.25
FIC ([2]; Vancomycin + peptide, E. faecium EFM010): 0.53
FIC ([2]; Vancomycin + peptide, E. faecium EFM011): 0.31
Vancomycin MIC + Peptide ([2]; E. faecalis EFS005): 4 µg/mL
Vancomycin MIC + Peptide ([2]; E. faecalis EFS010): 1 µg/mL
Vancomycin MIC + Peptide ([2]; E. faecalis EFS011): 2 µg/mL
Vancomycin MIC + Peptide ([2]; E. faecium EFM004): 0.125 µg/mL
Vancomycin MIC + Peptide ([2]; E. faecium EFM010): 1 µg/mL
Vancomycin MIC + Peptide ([2]; E. faecium EFM011): 2 µg/mL
Peptide MIC + Vancomycin ([2]; E. faecalis EFS005): 16 µg/mL
Peptide MIC + Vancomycin ([2]; E. faecalis EFS010): 1 µg/mL
Peptide MIC + Vancomycin ([2]; E. faecalis EFS011): 32 µg/mL
Peptide MIC + Vancomycin ([2]; E. faecium EFM004): 16 µg/mL
Peptide MIC + Vancomycin ([2]; E. faecium EFM010): 16 µg/mL
Peptide MIC + Vancomycin ([2]; E. faecium EFM011): 8 µg/mL
FIC ([2]; peptide + Amikacin, E. faecium EFM004): 0.56
FIC ([2]; peptide + Amikacin, E. faecium EFM020): 0.75
susceptibility of teicoplanin resistant enterococci to teicoplanin ([2]; teicoplanin in combination with peptide): become susceptible to teicoplanin
susceptibility of vancomycin resistant enterococci (VRE) to vancomycin ([2]; vancomycin in combination with peptide): become susceptible to vancomycin
